pIC50: −log10 of the molar value.
Molecular target: T1, soluble epoxide hydrolase (sEH) (Homo sapiens, UniProt P34913)
T1 sequence (P34913 1-555): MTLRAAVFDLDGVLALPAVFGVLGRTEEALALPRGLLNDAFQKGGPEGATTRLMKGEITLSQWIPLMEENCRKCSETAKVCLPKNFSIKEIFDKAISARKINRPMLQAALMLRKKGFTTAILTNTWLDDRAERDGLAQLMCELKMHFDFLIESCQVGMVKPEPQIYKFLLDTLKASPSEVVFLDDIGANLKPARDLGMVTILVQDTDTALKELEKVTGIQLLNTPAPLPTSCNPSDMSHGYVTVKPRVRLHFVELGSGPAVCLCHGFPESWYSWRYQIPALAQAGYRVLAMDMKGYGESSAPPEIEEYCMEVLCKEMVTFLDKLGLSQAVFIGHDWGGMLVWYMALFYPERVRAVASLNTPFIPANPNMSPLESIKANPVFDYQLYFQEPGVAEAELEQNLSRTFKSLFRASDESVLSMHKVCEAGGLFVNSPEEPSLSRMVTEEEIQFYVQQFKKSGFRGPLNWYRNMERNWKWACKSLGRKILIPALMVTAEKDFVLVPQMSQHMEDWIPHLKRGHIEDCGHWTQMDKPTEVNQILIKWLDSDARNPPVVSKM
Assay: PHOME assay activity test, sEH enzyme inhibition (fluorescence)
Type: biochemical
Details: PHOME 5 μM, pH 7.0; 10 min pre-incubation; test compound concentration range 20 nM-0.082 nM
Procedure: This example relates to the relationship between the structure and activity of (hetero)aryl imidazole compounds containing an aromatic substituent. Specifically, the biochemical activity of the (hetero)aryl imidazole compounds containing an aromatic substituent described herein as sEH enzyme inhibitors was evaluated by PHOME assay activity test experiment. The synthesis of the substrates and the test methods required for this test were all based on known literature reports (Analytical Biochemistry 2005, 343, 66-75).
The sEH enzyme activity inhibition experiment was performed in a low binding 96-well plate. The reaction system was 100 μL 25 mM Bis-Tris, pH 7.0, 0.1 mg/mL BSA buffer. The experimental steps of PHOME assay activity test were as follows.
First, a sEH enzyme solution with a final concentration of […] was mixed with compounds of different concentrations (test compound concentration range 20 nM-0.082 nM), and then pre-incubated on a shaker at room temperature for 10 min. The reaction was triggered by adding Phome fluorescent substrate at a final concentration of 5 μM and immediately placed in a Perkin Elmer microplate reader for dynamic monitoring for 1 hour at an excitation wavelength of 330 nm and an emission wavelength of 465 nm, with fluorescence readings at intervals of 1 minute. Graphpad Prism 9.0 software was used to calculate the slope of the fluorescence value increase in each well within 20 minutes, and the slope was used to calibrate the enzyme activity to calculate the inhibition rate of the compound on sEH enzyme activity under different concentration conditions. Finally, Graphpad Prism 9 was used to plot and calculate IC50 values.
The inhibitory activity IC50 values of some compounds against soluble epoxide hydrolase obtained by PHOME assay activity evaluation experiment are shown in Table 4.

Going from `Cc1nc(N)ncc1-c1cc2[nH]c(-c3ccc4oc(=O)n(C)c4c3)nc2c(F)c1F` [Compound 100, 3-methyl-5-(6-(4-methyl-2-aminopyrimid-5-yl)-4,5-difluoro-1H-benzo[d]imid-azol-2-yl)benzo[d]oxazol-2(3H)-one] to `Cc1nc(N)ncc1-c1cc2[nH]c(-c3ccc(C(F)(F)F)cn3)nc2c(F)c1F` [Compound 101, 4-methyl-5-(2-(5-(trifluoro-methyl)pyrid-2-yl)-4,5-difluoro-1H-benzo[d]imid-azol-6-yl)pyrimidine-2-amine], the pIC50 rises from 8.00 to 9.46 (1.46 log units).

First: Cc1nc(N2CC(O)C2)ncc1-c1cc2[nH]c(-c3ccc(C(F)(F)F)cc3)nc2c(F)c1F [Compound 93, 1-(4-methyl-5-(2-(4-(trifluoro-methyl)phenyl)-4,5-difluoro-1H-benzo[d]imidazol-6-yl)-pyrimidine-2-yl)azetidin-3-ol]
Second: Cc1nc(N2CC(C(=O)O)C2)ncc1-c1cc2[nH]c(-c3ccc(C(F)(F)F)cc3)nc2c(F)c1F [Compound 96, 1-(4-methyl-5-(2-(4-(trifluoro-methyl)phenyl)-4,5-difluoro-1H-benzo[d]imidazol-6-yl)-pyrimidine-2-yl)azetidine-3-carboxylic acid]
The pIC50 of the first is higher: > 10.09 for the first, 9.85 for the second.

First: N#Cc1nc(N)ncc1-c1cc2[nH]c(-c3ccc(C(F)(F)F)cc3)nc2c(F)c1F [Compound 95, 2-amino-5-(2-(4-(trifluoro-methyl)phenyl)-4,5-difluoro-1H-benzo[d]imidazol-6-yl)-pyrimidine-4-carbonitrile]
Second: Nc1ncc(-c2cc3[nH]c(-c4ccc(C(F)(F)F)cc4)nc3c(F)c2F)c(C(=O)O)n1 [Compound 99, 2-amino-5-(2-(4-(trifluoro-methyl)phenyl)-4,5-difluoro-1H-benzo[d]imidazol-6-yl)-pyrimidine-4-carboxylic acid]
The pIC50 of the first is higher: > 10.09 for the first, 7.38 for the second.

Compared with `Nc1ncc(-c2cc3[nH]c(-c4ccc5c(c4)OC(F)(F)O5)nc3c(F)c2F)c(C(F)F)n1` [Compound 89, 5-(2-(2,2-difluorobenzo[d][1,3]dioxol-5-yl)-4,5-difluoro-1H-benzo[d]imidazol-6-yl)-4-(difluoromethyl)pyrimidine-2-amine], `Nc1ncc(-c2cc3[nH]c(-c4cccc(C(F)(F)F)c4)nc3c(F)c2F)c(C(F)F)n1` [Compound 80, 5-(2-(3-(trifluoromethyl)phen-yl)-4,5-difluoro-1H-benzo[d]imidazol-6-yl)-4-(difluoro-methyl)pyrimidine-2-amine] is 0.27 log units lower in pIC50: 9.46 for the first, 9.19 for the second. The first is the more potent here.

Compared with `CN(C)c1nc(N)ncc1-c1cc2[nH]c(-c3ccc(C(F)(F)F)cc3)nc2c(F)c1F` [Compound 92, 5-(2-(4-(trifluoromethyl)phen-yl)-4,5-difluoro-1H-benzo[d]imidazol-6-yl)-N4,N4-dimeth-ylpyrimidine-2,4-diamine], `Cc1cc(N)nnc1-c1cc2[nH]c(-c3ccc(C(F)(F)F)cc3)nc2c(F)c1F` [Compound 103, 5-methyl-6-(2-(4-(trifluoro-methyl)phenyl)-4,5-difluoro-1H-benzo[d]imidazol-6-yl)-pyridazin-3-amine] is lower in pIC50: > 10.09 for the first, 9.44 for the second. The first is the more potent here.

`COCCNc1ncc(-c2cc3[nH]c(-c4ccc(C(F)(F)F)cc4)nc3c(F)c2F)c(C(F)F)n1` [Compound 88, 5-(2-(4-(trifluoromethyl)phen-yl)-4,5-difluoro-1H-benzo[d]imidazol-6-yl)-4-(difluoro-methyl)-N-(2-methoxyethyl)-pyrimidine-2-amine] and `Fc1c(-c2cnc(NC3COC3)nc2C(F)F)cc2[nH]c(-c3ccc(C(F)(F)F)cc3)nc2c1F` [Compound 91, 5-(2-(4-(trifluoromethyl)phen-yl)-4,5-difluoro-1H-benzo[d]imidazol-6-yl)-4-(difluoro-methyl)-N-(oxetan-3-yl)pyr-imidine-2-amine] are within 0.2 log units of each other in pIC50: 9.19 for the first, 9.21 for the second.

Going from `Cc1nc(N)ncc1-c1nc2[nH]c(-c3ccc(C(F)(F)F)cc3)nc2cc1F` [Compound 102, 4-methyl-5-(2-(4-(trifluoromethyl)phenyl)-6-fluoro-3H-imidazo[4,5-b]pyridin-5-yl)-pyrimidine-2-amine] to `Cc1nc(CN2CCOCC2)ncc1-c1cc2[nH]c(-c3ccc(C(F)(F)F)cc3)nc2c(F)c1F` [Compound 97, 4-((4-methyl-5-(2-(4-(trifluoro-methyl)phenyl)-4,5-difluoro-1H-benzo[d]imidazol-6-yl)-pyrimidine-2-yl)methyl)mor-pholine], the pIC50 rises from 8.84 to 10.04 (1.20 log units). The second is the more potent here.

`Cc1nc(N2CC(O)C2)ncc1-c1cc2[nH]c(-c3ccc(S(=O)(=O)N(C)C)c(F)c3)nc2c(F)c1F` [Compound 104, 4-(6-(4-methyl-2-(3-hydroxy-azetidin-1-yl)pyrimid-5-yl)-4,5-difluoro-1H-benzo[d]imidazol-2-yl)-2-fluoro-N,N-dimethylbenzenesulfonamide] and `Cc1nc(N2CC(C(=O)O)C2)ncc1-c1cc2[nH]c(-c3ccc(S(=O)(=O)N(C)C)c(F)c3)nc2c(F)c1F` [Compound 105, 1-(4-methyl-5-(2-(3-fluoro-4-(N,N-dimethylsulfamoyl)phen-yl)-4,5-difluoro-1H-benzo[d]imidazol-6-yl)pyrimidine-2-yl)azetidine-3-carboxylic acid] cannot be ordered by pIC50: < 7.70 for the first, < 7.70 for the second.

Compared with `Nc1ncc(-c2cc3[nH]c(-c4ccc(F)c(OC(F)(F)F)c4)nc3c(F)c2F)c(C(F)F)n1` [Compound 94, 5-(2-(3-(trifluoromethoxy)-4-fluorophenyl)-4,5-difluoro-1H-benzo[d]imidazol-6-yl)-4-(difluoromethyl)pyrimidine-2-amine], `Nc1ncc(-c2cc3[nH]c(-c4ccc(OC(F)(F)F)c(F)c4)nc3c(F)c2F)c(C(F)F)n1` [Compound 90, 5-difluoro-1H-benzo[d]5-(2-(4-(trifluoromethoxy)-3-fluoro-phenyl)-4,5-difluoro-1H-benzo [d]imidazol-6-yl)-4-(difluoro-methyl)pyrimidine-2-amine] is 0.72 log units higher in pIC50: 8.60 for the first, 9.32 for the second.

Molecular target: T1, soluble epoxide hydrolase (sEH)
Assay: in vitro biochemical activity test, sEH enzyme inhibition with EET substrate (LC-MS)
Details: 90 min pre-incubation at room temperature, 60 min reaction
Procedure: This example relates to the relationship between the structure and activity of (hetero)aryl imidazole compounds containing an aromatic substituent. Specifically, the biochemical activity of the (hetero)aryl imidazole compounds containing an aromatic substituent described in Example 1 as sEH enzyme inhibitors was evaluated by in vitro activity test experiments.
The experimental procedures for evaluating in vitro biochemical activity were described below.
The substrate used in the evaluation experiment was epoxyeicosatrienoic acid (EET). The solutions used in the evaluation experiments were Bis/Tris HCl 25 mM pH 7.0, Bis/Tris HCl 25 mM pH 7.0 containing 0.1 mg/mL BSA was used as buffer A, and Bis/Tris HCl 25 mM pH 7.0 containing 36.3 mM ZnSO4 was used as buffer B.
The specific steps of the evaluation experiment were as follows. 79 μL of buffer A was added to each well in a black 96-well plate and then 1 μL solution of the aromatic substituent-containing (hetero)aryl imidazole compound was added. Then, 10 μL sEH (1 μM) buffer A solution was added to the wells. After pre-incubation at room temperature for 90 min, 10 μL EET (10 μM) buffer A solution was added to trigger the reaction. After the mixture was allowed to react […] for 60 min, 15 μL buffer B and 180 μL acetonitrile were added to quench the reaction, followed by high-speed centrifugation and filtration for later use.
LC-MS was used to detect the concentration of EET in the samples. The final IC50 was calculated based on three independent experiments using Graphpad Prism software.

Compound `Nc1ncc(-c2cc3[nH]c(-c4cccc(C(F)(F)F)c4)nc3c(F)c2F)c(C(F)F)n1` [Compound 80, 5-(2-(3-(trifluoromethyl)phen-yl)-4,5-difluoro-1H-benzo[d]imidazol-6-yl)-4-(difluoro-methyl)pyrimidine-2-amine] has a pIC50 of 9.35.

— patent US20260297065A1, “AROMATIC SUBSTITUENT-CONTAINING (HETERO) ARYL-IMIDAZOLE COMPOUND, AND PREPARATION METHOD THEREFOR AND USE THEREOF” (OPEN SOURCE THERAPEUTICS, priority 2022, published 2026)
